Data from patent US7745465B2, “Method of enhancing cellular production of molecular chaperone, hydroxylamine derivatives useful for enhancing the chaperone production and the preparation thereof” (CytRx Corporation, priority 1995, dated 2010).

Assays:
HSP72 [1] = experiment: Heat stress induced hsp72 level in L-929 mouse fibroblast cells; format: cell-based; settings: L-929 cells, 10^−5 M, treatment preceded heat stress
Protocol: (§1) From the applied cells the 3T3 and L-929 mouse fibroblasts were cultured in MEM medium and grew in monolayer, the U-937 human leukemia cells were maintained in RPMI-1640 medium, in suspension culture, while the HeLa human epithelial cells were cultured in DMEM medium and in monolayer form. Cell cultures were maintained as described in example 6.2 (a) with the difference that cells were cultured in the above mentioned culture mediums.
(§2) Experiments were carried out applying stress before and after the drug treatment. Stress was provoked by heat, by chemical agent, HgCl2 treatment. The test compounds were applied in the treatments at the 10^−5 M concentration.
(§3) The experiments on 3T3 cell applying heat stress were performed as described in the 6.2. (c) point of example 6, with the difference that stress was induced by a 30 min. exposure at 43° C. temperature and treatment with the test compounds was performed 15 min. before or 100 min. after the heat stress.
(§4) Experiments using heat shock on U-937 leukemia and L-929 mouse fibroblast cells were carried out similarly as described above, but drug treatments in these tests always preceded the heat stress. The compound N-[2-hydroxy-3-(1-piperidinyl)-propoxy]-3-pyridine-carboximidoyl chloride maleate was tested at the 10^−5 M concentration under these experimental conditions.

AP-1 = AP-1 transcription factor activity in yeast cells; format: cell-based
Source text: (§5) It was also investigated if the activity of AP-1 and P 1 transcription factors can be modulated by N-[2-hydroxy-3-(1-piperidinyl)propoxy]-3-piridinecarboximidoyl chloride maleate in yeast cells exposed to various stress conditions.

[2] = test system: isolated working rat hearts; experiment: Isolated working rat hearts, 10-min. coronary occlusion and 3-min. reperfusion; settings: for cardioprotection after pretreatment: 20 mg/kg
Protocol: After a 10-min. aerobic working perfusion, hearts (n=10 in each group) were subjected to a 10-min. coronary occlusion followed by a 3-min. reperfusion in the presence of 0.05, 0.5, 5.0, 20.0, and 50 mg/L N-[2-hydroxy-3-(1-piperidinyl)propoxy]-3-pyridine carboximidoyl chloride maleate, respectively.
After excision of the hearts, they were subjected to the coronary occlusion protocol detailed above while perfused in presence/absence of 20 mg/l N-[2-hydroxy-3-(1-piperidinyl)propoxy]-3-piridinecarboximidoyl chloride maleate.

hsp72 [3] = experiment: Heat stress induced hsp72 level in U-937 leukemia cells; format: cell-based, human; settings: U-937 cells, 10^−5 M, treatment preceded heat stress
Protocol: as §1, §2, §3, §4

hsp72 [4] = experiment: hsp72 content of K562 tumor cells by flow-cytometry; format: cell-based, human; settings: for hsp72 expression compared to heat shock alone: 5×10^−5 M during 42° C. for 2 hours, 16 hrs recovery, maleate
Source text: Human K562 cells, a myeloid tumor cell line derived from a patient with chronic myelogenous leukemia in blast phase (ATCC, CCL243) was used (Lozzio, B C and Lozzio, B B Blood 45:321, 1975).

hsp26 mRNA = experiment: Northern blot of hsp26 mRNA in S. cerevisiae; format: cell-based, Saccharomyces cerevisiae; settings: 10-100 μM for 5 min. to 1 hour at 25° C.
Protocol: To S. cerevisiae cells that were maintained at 25° C., varying concentration of N-[2-hydroxy-3-(1-piperidinyl)propoxy]-3-piridinecarboximidoyl chloride maleate was introduced (concentrations between 10 to 100 μM), cells were then incubated for one hour at 25° C. in the presence of N-[2-hydroxy-3-(1-piperidinyl)propoxy]-3-piridinecarboximidoyl chloride maleate. The temperature was then increased to 42° C., and the oxygraph measurements were taken as described in the Patriarca reference.
The cells treated with N-[2-hydroxy-3-(1-piperidinyl)propoxy]-3-pyridine carboximidoyl chloride maleate were tested for concomitant induction of hsp genes, using Northern Blotting procedure. The method of extracting, purifying mRNAs from eukaryotic cells, and analyzing the RNA thus obtained using Northern blotting procedure is well known in the art and described in Maniatis, and Maresca, et al. Archives Medial Research 24: 247-249 (1993), both of the references being fully incorporated herein. The Northern blotting protocol is also described in Example 7 set forth above. Hsp 26 and hsp70 DNA sequences were used as probes.

P 1 = experiment: P1 transcription factor activity in yeast cells; format: cell-based; settings: minimal medium
Source text: as §5

TNF treated WEHI 164 = experiment: Protection of cells against cytotoxic cytokines (TNF); format: cell-based; settings: WEHI 164 (and other mammalian) cells
yeast cells = experiment: Proliferation of yeast cells; format: cell-based
Hsp72 [5] = experiment: hsp72 level of skin biopsy samples of STZ-diabetic rats (Western blot); format: in vivo, rat; settings: 4% containing cream, topical
Protocol: (ii) Streptozotocin-induced diabetic (STZ) rats with partial-to full thickness thermal wounds created on bilateral thoracic depilated skin by electroheating probe (3 mm of diameter; 60° C.; for 30, 60 and 90 sec.), treated by topical application of 1%, 2% or 4% N-[2-hydroxy-3-(1-piperidinyl)propoxy]-3-piridinecarboximidoyl chloride maleate containing cream or vehicle were used to determine the wound healing in form of self-control, side to side comparison. Wound closure was recorded photographically and using the digital epiluminescence microscopic technique. Wound areas were measured by planimetry 48 h and 21 days after heat injury. Level of hsp72 of skin biopsy samples was determined using Western blot analysis.

## O=C(O)/C=C\C(=O)O.OC(CON=C(Cl)c1cccnc1)CN1CCCCC1 (stereo not drawn) [N-[2-hydroxy-3-(1-piperidinyl)-propoxy]3-pyridinecarboximidoyl chloride maleate]
HSP72 [1]
  increase in the heat stress induced hsp72 level: more than 50%
AP-1; rich medium
  activity of AP-1: decrease the activity of the factor
AP-1; supply of nutrients inadequate
  activity of AP-1: increases the activity of AP-1
[2]; five hours before isolation of the hearts
  cardioprotection after pretreatment: not observable
[2]; one hour before isolation of the hearts
  cardioprotection after pretreatment: still afforded cardioprotection
[2]; 0.05-50 mg/L, bell-shaped, 20 mg/L most pronounced
  ischemia-induced deterioration of cardiac function: alleviated ischemia-induced deterioration of cardiac function
[2]; 50 mg/L
  heart rate before ischemia: significant bradycardia
[2]; before ischemia, bell-shaped concentration-response
  coronary flow (CF): increased coronary flow (CF)
[2]; higher concentrations
  reperfusion-induced ventricular fibrillation: dose-dependent antiarrhythmic effect
hsp72 [3]
  increase in the heat stress induced hsp72 level: more than 50%
hsp72 [4]; listed as N-[2-hydroxy-3-(1-piperidinyl)propoxy]-3-piridinecarboximidoyl chloride maleate
  hsp72 expression compared to heat shock alone: enhanced level of hsp72
hsp72 [4]; listed as N-[2-hydroxy-3-(1-piperidinyl)propoxy]-3-piridinecarboxymidoyl chloride maleate
  hsp72 expression compared to heat shock alone: significant increase of hsp72 expression
hsp72 [4]; compound alone, no heat shock
  hsp72 levels: did not increase hsp72 levels
hsp26 mRNA
  induction of hsp 26: induction of hsp 26 was observed
P 1
  activity of P 1: activity decreased
TNF treated WEHI 164
  survival rate of TNF treated cells: increased the survival rate
Yeast cells
  proliferative effect: unexpected proliferative effect
Hsp72 [5]
  hsp72 level in skin biopsy samples compared to vehicle control: elevated the hsp72 level
